Assay results: US8329755B2, “Methods for treating retroviral infections” (Roche Palo Alto LLC, priority 2004, dated 2012)

| SMILES | melting point |
| --- | --- |
| CCC(=O)NS(=O)(=O)c1ccc(NC(=O)Cc2ccc(Cl)c(Oc3cc(Cl)cc(C#N)c3)c2F)c(Cl)c1.[Na] | 155.4 to 157.5 °C |
| Cl.N#Cc1cc(Cl)cc(Oc2c(Cl)ccc(CC(=O)Nc3ccc(S(=O)(=O)NC(=O)CCN)cc3Cl)c2F)c1 | 199.3 to 199.6 °C |
| COCC(=O)NS(=O)(=O)c1ccc(NC(=O)Cc2ccc(Cl)c(Oc3cc(Cl)cc(C#N)c3)c2F)c(Cl)c1.[Na] | 151.7 to 152.3 °C |
| N#Cc1cc(Cl)cc(Oc2c(Cl)ccc(CC(=O)Nc3ccc(S(=O)(=O)NC(=O)CO)cc3Cl)c2F)c1.[Na] | 178 to 179.5 °C |
| Cc1cc(C(=O)CN2CCOCC2)ccc1NC(=O)Cc1ccc(C)c(Oc2cc(Cl)cc(C#N)c2)c1.O=C(O)C(F)(F)F | 110.3 to 110.5 °C |
| COCCC(=O)NS(=O)(=O)c1ccc(NC(=O)Cc2ccc(Cl)c(Oc3cc(Cl)cc(C#N)c3)c2F)c(Cl)c1.[Na] | 133.1 to 140.7 °C |
| CCCCC(=O)NS(=O)(=O)c1ccc(NC(=O)Cc2ccc(Cl)c(Oc3cc(Cl)cc(C#N)c3)c2F)c(Cl)c1.[Na] | 157.6 to 159.2 °C |
| CC(C)CC(=O)NS(=O)(=O)c1ccc(NC(=O)Cc2ccc(Cl)c(Oc3cc(Cl)cc(C#N)c3)c2F)c(Cl)c1.[Na] | 159.3 to 163.4 °C |
| CCN(CC)CC(=O)NS(=O)(=O)c1ccc(NC(=O)Cc2ccc(Cl)c(Oc3cc(Cl)cc(C#N)c3)c2F)c(Cl)c1.Cl | 195.3 to 197.2 °C |
| CC(C)CCC(=O)NS(=O)(=O)c1ccc(NC(=O)Cc2ccc(Cl)c(Oc3cc(Cl)cc(C#N)c3)c2F)c(Cl)c1.[Na] | 195.6 to 197 °C |
| Cl.N#Cc1cc(Cl)cc(Oc2c(Cl)ccc(CC(=O)Nc3ccc(S(=O)(=O)NC(=O)CN4CCOCC4)cc3Cl)c2F)c1 | 223.3 to 225 °C |
| CCC(=O)NS(=O)(=O)c1ccc(NC(=O)Cc2ccc(C)c(Oc3cc(Cl)cc(C#N)c3)c2F)c(Cl)c1.[Na] | 158.8 to 162 °C |
| Cc1cc(S(=O)(=O)NC(=O)[C@@H](N)C(C)C)ccc1NC(=O)Cc1ccc(Cl)c(Oc2cc(Cl)cc(C#N)c2)c1F.Cl | 169 to 180.3 °C |
| Cc1cc(S(=O)(=O)NC(=O)c2cccnc2)ccc1NC(=O)Cc1ccc(Cl)c(Oc2cc(Cl)cc(C#N)c2)c1F.Cl | 261.8 to 263.6 °C |
| N#Cc1cc(Cl)cc(Oc2cc(CC(=O)Nc3ccc(S(N)(=O)=O)cc3)ccc2Cl)c1 [Compound I-1, 2-[4-Chloro-3-(3-chloro-5-cyano-phenoxy)-phenyl]-N-(4-sulfamoyl-phenyl)-acetamide] | 210.5 to 214 °C |
| N#Cc1cc(C#N)cc(Oc2cc(CC(=O)Nc3ccc(S(N)(=O)=O)cc3)ccc2Cl)c1 [Compound I-2, 2-[4-Chloro-3-(3,5-dicyano-phenoxy)-phenyl]-N-(4-sulfamoyl-phenyl)-acetamide] | 218 to 219 °C |
| Cc1cc(OCCCS(N)(=O)=O)ccc1NC(=O)Cc1ccc(Cl)c(Oc2cc(Cl)ccc2Br)c1 [Compound I-3, 2-[3-(2-Bromo-5-chloro-phenoxy)-4-chloro-phenyl]-N-[2-methyl-4-(3-sulfamoyl-propoxy)-phenyl]-acetamide] | 190.1 to 192.2 °C |
| N#Cc1cc(C#N)cc(Oc2c(Cl)ccc(CC(=O)Nc3ccc(S(N)(=O)=O)cc3)c2F)c1 [Compound I-9, 2-[4-Chloro-3-(3,5-dicyano-phenoxy)-2-fluoro-phenyl]-N-(4-sulfamoyl-phenyl)-acetamide] | 135.7 to 138.1 °C |
| NS(=O)(=O)c1ccc(NC(=O)Cc2ccc(Cl)c(Oc3cc(Cl)cc(Cl)c3Cl)c2F)cc1 [Compound I-10, 2-[4-Chloro-2-fluoro-3-(2,3,5-trichloro-phenoxy)-phenyl]-N-(4-sulfamoyl-phenyl)-acetamide] | 247 to 249.9 °C |
| Cc1ccc(CC(=O)Nc2ccc(S(N)(=O)=O)cc2)cc1Oc1cc(F)cc(C#N)c1 [Compound I-11, 2-[3-(3-Cyano-5-fluoro-phenoxy)-4-methyl-phenyl]-N-(4-sulfamoyl-phenyl)-acetamide] | 165.8 to 168.1 °C |
| Cc1ccc(CC(=O)Nc2ccccc2Cl)cc1Oc1cc(F)cc(C#N)c1 [Compound I-12, N-(2-Chloro-phenyl)-2-[3-(3-cyano-5-fluoro-phenoxy)-4-methyl-phenyl]-acetamide] | 131.1 to 132.2 °C |
| N#Cc1cc(Oc2c(Cl)ccc(CC(=O)Nc3ccc(S(N)(=O)=O)cc3)c2F)cc(C(F)F)c1 [Compound I-13, 2-[4-Chloro-3-(3-cyano-5-difluoromethyl-phenoxy)-2-fluoro-phenyl]-N-(4-sulfamoyl-phenyl)-acetamide] | 214 to 218 °C |

| SMILES | melting point |
| --- | --- |
| N#Cc1cc(Oc2c(Cl)ccc(CC(=O)Nc3ccccc3Cl)c2F)cc(C(F)F)c1 [Compound I-14, 2-[4-Chloro-3-(3-cyano-5-difluoromethyl-phenoxy)-2-fluoro-phenyl]-N-(2-chloro-phenyl)-acetamide] | 169.5 to 171 °C |
| CCc1ccc(CC(=O)Nc2ccc(S(N)(=O)=O)cc2)cc1Oc1cc(Cl)ccc1Br [Compound I-15, 2-[3-(2-Bromo-5-chloro-phenoxy)-4-ethyl-phenyl]-N-(4-sulfamoyl-phenyl)-acetamide] | 193.7 to 195.9 °C |
| CCc1ccc(CC(=O)Nc2ccccc2Cl)cc1Oc1cc(Cl)ccc1Br [Compound I-16, 2-[3-(2-Bromo-5-chloro-phenoxy)-4-ethyl-phenyl]-N-(2-chloro-phenyl)-acetamide] | 154 to 155.5 °C |
| CCc1ccc(CC(=O)Nc2ccc(S(N)(=O)=O)cc2)cc1Oc1cc(Cl)ccc1C#N [Compound I-17, 2-[3-(5-Chloro-2-cyano-phenoxy)-4-ethyl-phenyl]-N-(4-sulfamoyl-phenyl)-acetamide] | 198.1 to 202.6 °C |
| CCc1ccc(CC(=O)Nc2ccccc2Cl)cc1Oc1cc(Cl)ccc1C#N [Compound I-18, 2-[3-(5-Chloro-2-cyano-phenoxy)-4-ethyl-phenyl]-N-(2-chloro-phenyl)-acetamide] | 168 to 169.9 °C |
| CCc1ccc(CC(=O)Nc2ccc(S(N)(=O)=O)cc2)cc1Oc1cc(Cl)ccc1Cl [Compound I-19, 2-[3-(2,5-Dichloro-phenoxy)-4-ethyl-phenyl]-N-(4-sulfamoyl-phenyl)-acetamide] | 190 to 193.4 °C |
| CCc1ccc(CC(=O)Nc2ccc(S(N)(=O)=O)cc2)cc1Oc1c(Cl)cccc1Cl [Compound I-20, 2-[3-(2,6-Dichloro-phenoxy)-4-ethyl-phenyl]-N-(4-sulfamoyl-phenyl)-acetamide] | 222.5 to 225 °C |
| CCc1ccc(CC(=O)Nc2ccccc2Cl)cc1Oc1cc(Cl)ccc1Cl [Compound I-21, N-(2-Chloro-phenyl)-2-[3-(2,5-dichloro-phenoxy)-4-ethyl-phenyl]-acetamide] | 146.3 to 147.1 °C |
| CCc1ccc(CC(=O)Nc2ccc(S(N)(=O)=O)cc2)cc1Oc1cc(Cl)cc(Br)c1 [Compound I-22, 2-[3-(3-Bromo-5-chloro-phenoxy)-4-ethyl-phenyl]-N-(4-sulfamoyl-phenyl)-acetamide] | 216.1 to 221.3 °C |
| CCc1ccc(CC(=O)Nc2ccccc2Cl)cc1Oc1c(Cl)cccc1Cl [Compound I-23, N-(2-Chloro-phenyl)-2-[3-(2,6-dichloro-phenoxy)-4-ethyl-phenyl]-acetamide] | 107 to 110.5 °C |
| CCc1ccc(CC(=O)Nc2ccccc2Cl)cc1Oc1cc(Cl)cc(Br)c1 [Compound I-24, 2-[3-(3-Bromo-5-chloro-phenoxy)-4-ethyl-phenyl]-N-(2-chloro-phenyl)-acetamide] | 119.9 to 122.2 °C |
| CC(C)c1ccc(CC(=O)Nc2ccc(S(N)(=O)=O)cc2)cc1Oc1cc(Cl)ccc1Br [Compound I-26, 2-[3-(2-Bromo-5-chloro-phenoxy)-4-isopropyl-phenyl]-N-(4-sulfamoyl-phenyl)-acetamide] | 204.1 to 206.7 °C |
| CC(C)c1ccc(CC(=O)Nc2ccccc2Cl)cc1Oc1cc(Cl)ccc1Br [Compound I-27, 2-[3-(2-Bromo-5-chloro-phenoxy)-4-isopropyl-phenyl]-N-(2-chloro-phenyl)-acetamide] | 142.9 to 143.6 °C |
| N#Cc1cc(C#N)cc(Oc2c(Cl)ccc(CC(=O)Nc3ccccc3Cl)c2F)c1 [Compound I-28, 2-[4-Chloro-3-(3,5-dicyano-phenoxy)-2-fluoro-phenyl]-N-(2-chloro-phenyl)-acetamide] | 182.6 to 196.5 °C |
| Cc1ccc(CC(=O)Nc2ccc(S(N)(=O)=O)cc2)cc1Oc1cc(Cl)ccc1Br [Compound I-30, 2-[3-(2-Bromo-5-chloro-phenoxy)-4-methyl-phenyl]-N-(4-sulfamoyl-phenyl)-acetamide] | 236.9 to 239.3 °C |
| Cc1cc(S(N)(=O)=O)ccc1NC(=O)Cc1ccc(C)c(Oc2cc(Cl)ccc2Br)c1 [Compound I-31, 2-[3-(2-Bromo-5-chloro-phenoxy)-4-methyl-phenyl]-N-(2-methyl-4-sulfamoyl-phenyl)-acetamide] | 200.5 to 203.5 °C |
| Cc1cc(S(N)(=O)=O)ccc1NC(=O)Cc1ccc(Cl)c(Oc2cc(C#N)cc(C#N)c2)c1F [Compound I-32, 2-[4-Chloro-3-(3,5-dicyano-phenoxy)-2-fluoro-phenyl]-N-(2-methyl-4-sulfamoyl-phenyl)-acetamide] | 248.4 to 250.8 °C |
| Cc1ccc(CC(=O)Nc2ccccc2Cl)cc1Oc1cc(Cl)ccc1Br [Compound I-33, 2-[3-(2-Bromo-5-chloro-phenoxy)-4-methyl-phenyl]-N-(2-chloro-phenyl)-acetamide] | 133.9 to 135.9 °C |
| Cc1ccc(CC(=O)Nc2ccccc2Cl)cc1Oc1cc(C#N)cc(C#N)c1 [Compound I-34, N-(2-Chloro-phenyl)-2-[3-(3,5-dicyano-phenoxy)-4-methyl-phenyl]-acetamide] | 175.1 to 177.5 °C |
| CCc1ccc(CC(=O)Nc2ccc(S(N)(=O)=O)cc2)cc1Oc1cc(Cl)cc(Br)c1Cl [Compound I-35, 2-[3-(3-Bromo-2,5-dichloro-phenoxy)-4-ethyl-phenyl]-N-(4-sulfamoyl-phenyl)-acetamide] | 206.9 to 209.9 °C |
| CCc1ccc(CC(=O)Nc2ccc(S(N)(=O)=O)cc2C)cc1Oc1cc(Cl)cc(Br)c1Cl [Compound I-36, 2-[3-(3-Bromo-2,5-dichloro-phenoxy)-4-ethyl-phenyl]-N-(2-methyl-4-sulfamoyl-phenyl)-acetamide] | 213.2 to 219.6 °C |
